Reference: US5635527A, “Carboxylic acid compound having condensed ring, salt thereof and pharmaceutical use thereof” (The Green Cross Corporation, priority 1994, dated 1997)

Tested on: human platelets
Assay: suppressive activity on ADP aggregation of human platelets
Assay type: cell-based
Conditions: platelet rich plasma, ADP 1-5 μM, compound added 2 minutes before ADP, read-out: Suppression of platelet aggregation (IC50)
Procedure: Determination of suppressive activity on ADP aggregation of human platelets
Platelet rich plasma was prepared from the blood taken from healthy humans by centrifugation in the presence of 0.38% sodium citrate, and used for the determination.
Two minutes after the test compounds shown in Table 1 were added to the above-mentioned platelet rich plasma, ADP (adenosine-5'-diphosphate) (1-5 μM) having a concentration at which primary aggregation alone is observed was added, and the suppression of ADP aggregation by the compounds was evaluated. The percent suppression was determined by varying the concentration of the compounds and the concentration of the compound at which the aggregation was suppressed by 50% (IC50) was calculated, which was taken as the activity of the compound.

N=C(NCc1ccccc1)c1ccc2oc(C(=O)Nc3ccc(OCC(=O)O)cc3)cc2c1 [Compound 5, 4-[(5-Benzylamidino-2-benzofuranyl)carbonylamino]phenoxy-acetic acid] was tested. Which IC50 did it give?
The IC50 was 0.1 µM.

How did the IC50 turn out when N=C(N)c1ccc2oc(C(=O)Nc3ccc(OCC(=O)O)cc3)cc2c1 [Compound 10, 4-[(5-Amidino-2-benzofuranyl)carbonylamino]phenoxyacetic acid] was run?
The IC50 was 0.03 µM.

With N=C(N)c1ccc2cc(C(=O)Nc3ccc(OCC(=O)O)cc3)oc2c1 [Compound 12, 4-[(6-Amidino-2-benzofuranyl)carbonylamino]phenoxyacetic acid] as the compound, how does the IC50 read?
The IC50 was 0.23 µM.

Which IC50 does the source give for Cc1c(C(=O)Nc2ccc(OCC(=O)O)cc2)oc2ccc(C(=N)N)cc12 [Compound 16, 4-[(5-Amidino-3-methyl-2-benzofuranyl)carbonylamino]phenoxyacetic acid] here?
Its IC50 is 0.04 µM.

CN(C(=O)c1cc2cc(C(=N)N)ccc2o1)c1ccc(OCC(=O)O)cc1 [Compound 21, 4-[(5-Amidino-2-benzofuranyl)carbonyl-N-methylamino]phenoxyacetic acid] was tested. Which IC50 did it give?
The IC50 was 0.1 µM.

How did the IC50 turn out when N=C(N)c1ccc2oc(C(=O)Nc3ccc(OCC(=O)O)c(OCC(=O)O)c3)cc2c1 [Compound 29, [[4-[(5-Amidino-2-benzofuranyl)carbonylamino]-o-phenylene]dioxy]diacetic acid] was run?
The IC50 was 0.03 µM.

COC(=O)CCc1ccc(NC(=O)c2cc3cc(C(=N)N)ccc3o2)cc1 [Compound 35, Methyl 3-[4-[(5-amidino-2-benzofuranyl)carbonylamino]phenyl]propionate] was tested. Which IC50 did it give?
Its IC50 is 0.5 µM.

N=C(N)c1ccc2oc(C(=O)Nc3ccc(CCC(=O)O)cc3)cc2c1 [Compound 37, 3-[4-[(5-Amidino-2-benzofuranyl)carbonylamino]phenyl]propionate] was tested. Which IC50 did it give?
Its IC50 is 0.04 µM.

For N=C(N)c1ccc2oc(C(=O)Nc3ccc(C[C@H](N)C(=O)O)cc3)cc2c1 [Compound 46, (S)-3-[4 [(5-Amidino-2-benzofuranyl)carbonylamino]phenyl]-2-aminopropionic acid], which IC50 is on record?
The IC50 was 0.06 µM.

Which IC50 does the source give for CCCCS(=O)(=O)NC(Cc1ccc(NC(=O)c2cc3cc(C(=N)N)ccc3o2)cc1)C(=O)O (stereo not shown) [Compound 48, 3-[4-[(5-Amidino-2-benzofuranyl)carbonylamino]phenyl]-2-(n-butylsulfonylamino)propionic acid] here?
Its IC50 is 0.01 µM.

With N=C(N)c1ccc2oc(C(=O)Nc3ccc(C[C@H](NS(=O)(=O)C(F)(F)F)C(=O)O)cc3)cc2c1 [Compound 55, (S)-3-[4-[(5-Amidino-2-benzofuranyl)carbonylamino]phenyl]-2-(trifluoromethylsulfonylamino)propionic acid] as the compound, how does the IC50 read?
Its IC50 is 0.07 µM.

For N=C(N)c1ccc2oc(C(=O)Nc3ccc(C[C@H](NC(=O)COC4CCNCC4)C(=O)O)cc3)cc2c1 [Compound 56, (S)-3-[4-[(5-Amidino-2-benzofuranyl)carbonylamino]phenyl]2-[(4-piperidinyloxy)acetylamino]propionic acid], which IC50 is on record?
Its IC50 is 0.03 µM.

COc1ccc(CCC(=O)N[C@@H](Cc2ccc(NC(=O)c3cc4cc(C(=N)N)ccc4o3)cc2)C(=O)O)cc1 [Compound 61, (S)-3-[4-[(5-Amidino-2-benzofuranyl)carbonylamino]phenyl]-2-[3-(4-methoxyphenyl)propionylamino]propionic acid] was tested. Which IC50 did it give?
The IC50 was 0.03 µM.

Which IC50 does the source give for N=C(N)c1ccc2oc(C(=O)Nc3ccc(NCC(=O)O)cc3)cc2c1 [Compound 70, [4-[(5-Amidino-2-benzofuranyl)carbonylamino]anilino]acetic acid] here?
Its IC50 is 0.15 µM.

With CCCCC(=O)N(CC(=O)O)c1ccc(NC(=O)c2cc3cc(C(=N)N)ccc3o2)cc1 [Compound 74, [4-[(5-Amidino-2-benzofuranyl)carbonylamino]-N-(n-valeryl)anilino]acetic acid] as the compound, how does the IC50 read?
Its IC50 is 0.23 µM.

With N=C(N)c1ccc2cc(C(=O)Nc3ccc(OCC(=O)O)cc3)[nH]c2c1 [Compound 95, 4-[(6-Amidino-2-indolyl)carbonylamino]phenoxyacetic acid] as the compound, how does the IC50 read?
The IC50 was 0.06 µM.

How did the IC50 turn out when Cn1c(C(=O)Nc2ccc(OCC(=O)O)cc2)cc2ccc(C(=N)N)cc21 [Compound 118, 4-[(6-Amidino-1-methyl-2-indolyl)carbonylamino]phenoxyacetic acid] was run?
The IC50 was 0.2 µM.

For N=C(N)c1ccc2sc(C(=O)Nc3ccc(OCC(=O)O)cc3)cc2c1 [Compound 134, 4-[(5-Amidinobenzo[b]thien-2-yl)carbonylamino]phenoxyacetic acid], which IC50 is on record?
Its IC50 is 0.7 µM.

With N=C(N)c1ccc2cc(C(=O)Nc3ccc(OCC(=O)O)cc3)sc2c1 [Compound 135, 4-[(6-Amidinobenzo[b]thien-2-yl)carbonylamino]phenoxyacetic acid] as the compound, how does the IC50 read?
Its IC50 is 0.02 µM.

How did the IC50 turn out when N=C(N)c1ccc2oc(C(=O)OC3CCC(OCC(=O)O)CC3)cc2c1 (stereo not shown) [Compound 152, [4-[(5-Amidino-2-benzofuranyl)carbonyloxy]cyclohexyloxy]acetic acid] was run?
Its IC50 is 0.08 µM.

For CCOC(=O)CC[C@H]1CC[C@H](NC(=O)c2cc3cc(C(=N)N)ccc3o2)CC1 [Compound 159], which IC50 is on record?
Its IC50 is 0.07 µM.

With N=C(N)c1ccc2oc(C(=O)N[C@H]3CC[C@H](CCC(=O)OCCO)CC3)cc2c1 [Compound 163, 2-Hydroxyethyl trans-3-[4-[(5-amidino-2-benzofuranyl)carbonylamino]cyclohexyl]propionate] as the compound, how does the IC50 read?
The IC50 was 0.45 µM.

How did the IC50 turn out when N=C(N)c1ccc2oc(C(=O)N[C@H]3CC[C@H](OCC(=O)OCCO)CC3)cc2c1 [Compound 164, 2-Hydroxyethyl trans-[4-[(5-amidino-2-benzofuranyl)carbonylamino]cyclohexyloxy]acetate] was run?
Its IC50 is 0.18 µM.

Which IC50 does the source give for N=C(N)c1ccc2oc(C(=O)NC3CCC(CCC(=O)O)CC3)cc2c1 (stereo not shown) [Compound 165, 3-[4-[(5-Amidino-2-benzofuranyl)carbonylamino]cyclohexyl]propionic acid] here?
Its IC50 is 0.01 µM.

N=C(N)c1ccc2oc(C(=O)N[C@H]3CC[C@H](CCC(=O)O)CC3)cc2c1 [Compound 167, trans-3-[4-[(5-amidino-2-benzofuranyl)carbonylamino]cyclohexyl]propionic acid] was tested. Which IC50 did it give?
The IC50 was 0.006 µM.

N=C(N)c1ccc2oc(C(=O)N[C@H]3CC[C@H](OCC(=O)O)CC3)cc2c1 [Compound 179, trans-[4-[(5-Amidino-2-benzofuranyl)carbonylamino]cyclohexyloxy]acetic acid] was tested. Which IC50 did it give?
Its IC50 is 0.01 µM.

For Cc1c(C(=O)N[C@H]2CC[C@H](OCC(=O)O)CC2)oc2ccc(C(=N)N)cc12 [Compound 182, trans-[4-[(5-Amidino-3-methyl-2-benzofuranyl)carbonylamino]cyclohexyloxy]acetic acid], which IC50 is on record?
The IC50 was 0.03 µM.

COc1c(C(=O)N[C@H]2CC[C@H](OCC(=O)O)CC2)oc2ccc(C(=N)N)cc12 [Compound 184, trans-[4-[(5-Amidino-3-methoxy-2-benzofuranyl)carbonyl-amino]cyclohexyloxy]acetic acid] was tested. Which IC50 did it give?
Its IC50 is 0.15 µM.

CCOC(=O)CCN1CCC(NC(=O)c2cc3cc(C(=N)N)ccc3o2)CC1 [Compound 191, Ethyl 3-[4-[(5-amidino-2-benzofuranyl)carbonylamino]-piperidino]propionate] was tested. Which IC50 did it give?
Its IC50 is 0.16 µM.

Which IC50 does the source give for N=C(N)c1ccc2oc(C(=O)NC3CCN(CCC(=O)O)CC3)cc2c1 [Compound 192, 3-[4-[(5-amidino-2-benzofuranyl)carbonylamino]piperidino]propionic acid] here?
The IC50 was 0.02 µM.

Which IC50 does the source give for CCOC(=O)CCN1CCC(OC(=O)c2cc3cc(C(=N)N)ccc3o2)CC1 [Compound 193, Ethyl 3-[4-[(5-amidino-2-benzofuranyl)carbonyloxy]piperidino]propionate] here?
Its IC50 is 0.32 µM.

How did the IC50 turn out when N=C(N)c1ccc2oc(C(=O)N[C@H]3CC[C@H](NCC(=O)O)CC3)cc2c1 [Compound 195, trans-[4-[(5-Amidino-2-benzofuranyl)carbonylamino]cyclohexylamino]acetic acid] was run?
Its IC50 is 0.02 µM.

CCOC(=O)CN(CC(=O)OCC)[C@H]1CC[C@H](NC(=O)c2cc3cc(C(=N)N)ccc3o2)CC1 [Compound 202, Diethyl trans-[4-[(5-amidino-2-benzofuranyl)carbonylamino]cyclohexylamino]diacetate] was tested. Which IC50 did it give?
Its IC50 is 0.23 µM.

How did the IC50 turn out when CC(C)(C)OC(=O)CN(CC(=O)OC(C)(C)C)[C@H]1CC[C@H](NC(=O)c2cc3cc(C(=N)N)ccc3o2)CC1 [Compound 203, di-t-butyl trans-[4-[(5-amidino-2-benzofuranyl)-carbonylamino]cyclohexylamino]diacetate] was run?
Its IC50 is 1.75 µM.

Which IC50 does the source give for N=C(N)c1ccc2oc(C(=O)N[C@H]3CC[C@H](N(CC(=O)O)CC(=O)O)CC3)cc2c1 [Compound 204, trans-[4-[(5-Amidino-2-benzofuranyl)carbonylamino]cyclohexylamino]diacetic acid] here?
Its IC50 is 0.009 µM.

For CCOC(=O)CO[C@H]1CC[C@H](NC(=O)c2cc3ccc(C(=N)N)cc3[nH]2)CC1 [Compound 209, Ethyl trans-[4-[(6-Amidino-2-indolyl)carbonylamino]cyclohexyloxy]acetate], which IC50 is on record?
Its IC50 is 0.1 µM.

With N=C(N)c1ccc2cc(C(=O)N[C@H]3CC[C@H](OCC(=O)O)CC3)[nH]c2c1 [Compound 212, trans-[4-[(6-Amidino-2-indolyl)carbonylamino]cyclohexyloxy]acetic acid] as the compound, how does the IC50 read?
The IC50 was 0.03 µM.

For N=C(N)c1ccc2cc(C(=O)N[C@H]3CC[C@H](OCC(=O)O)CC3)sc2c1 [Compound 232, trans-[4-[(6-Amidinobenzo[b]thien-2-yl)carbonylamino]cyclohexyloxy]acetic acid], which IC50 is on record?
Its IC50 is 0.02 µM.

With N=C(N)c1cnc2oc(C(=O)Nc3ccc(OCC(=O)O)cc3)cc2c1 [Compound 239, 4-(5-Amidinofuro[2,3-b]pyridine-2-carbonylamino)-phenoxyacetic acid] as the compound, how does the IC50 read?
Its IC50 is 0.01 µM.

For N=C(N)c1cnc2oc(C(=O)Nc3ccc(OCC(=O)O)nc3)cc2c1 [Compound 246, 5-(5-Amidinofuro[2,3-b]pyridine-2-carbonylamino)-2-pyridyloxyacetic acid], which IC50 is on record?
The IC50 was 0.03 µM.
